Results reported in patent US20250087329A1, “PERSONALISED RECOMMENDED DAILY INTAKE FOR NUTRIENTS BASED ON INDIVIDUAL GENETIC RISK SCORES” (SOCIETE DES PRODUITS NESTLE S.A., priority 2021, published 2025).

Test: Dose-response algorithm for vitamin B12 including polygenic risk score effects (Arivale cohort)
Parameters: species or system human
Details: 14-18 risk alleles vs 0-4 risk alleles
Procedure: A linear regression was performed for the selected SNPs against vitamin B12 in the Arivale cohort. The Arivale cohort consists of individuals over 18 years of age who between 2015 and 2019 self-enrolled in a now closed scientific wellness company. Briefly, majority of Arivale participants (˜80%) were residents of Washington or California when in the program (for further information on the Arivale cohort see Wilmanski et al. 2021). Methyl-malonic acid (MMA) was measured as a biomarker for blood B12 concentrations. MMA is inversely correlated with vitamin B12 blood levels. The distribution of the PRS was normally distributed and the average increase in MMA per risk allele was 3.4 units (Table 5) corresponding to a decrease of approximately […] vitamin B12 (cobalamin) per risk allele.
To estimate individual vitamin B12 intake needs, a genetic term that sums the effects of all risk alleles present in an individual was added to the dose-response model in the form: […]

Compound	intake needed by highest risk score group relative to low risk group to reach the same blood levels
cobalamin [vitamin B12]	five times

Same assay, conditions: sufficiency for 97% of the high risk group

Compound	daily vitamin B12 intake needed for vitamin B12 sufficiency
cobalamin [vitamin B12]	higher than 1500 mcg/day

Test: not given
Details: Person; daily intake; cited from earlier work

Compound	UL (tolerable upper intake level) [mg]
C[N+](C)(C)CCO [Choline]	3500
O=C(O)c1cccnc1 [Niacin (B3), Niacin]	35
[Se] [Selenium]	0.4
Cc1c(C)c2c(c(C)c1O)CC[C@@](C)(CCC[C@H](C)CCC[C@H](C)CCCC(C)C)O2 [α-tocopherol (Vitamin E), α-tocopherol]	1000
[Mn+2] [Manganese]	11
[Zn] [Zinc]	40
[Mg+2] [Magnesium]	350
[Na] [Sodium]	2300
[Ca+2] [Calcium]	2500
Cl [Chloride]	3600
F [Fluoride]	10
[P] [Phosphorus]	4000
